Source: patent US20240317866A1, “Use of Anti-EGFR/Anti-Met Antibody to Treat Gastric or Esophageal Cancer” (Janssen Biotech, Inc., priority 2022, published 2024)

Test system: gastric cancer (GC, including GEJ cancer) expressing EGFR and/or cMet
Experiment: Phase 2a study of amivantamab monotherapy, gastric cancer cohort: response by RECIST Version 1.1, investigator judgement
Assay type: in vivo, human
Excerpt: Approximately 30 participants with any expression level of EGFR, cMet, or both proteins are enrolled in each of the Phase 2a cohort. However, based on the priorexperiences investigating anti-EGFR andanti-cMet antibodies in gastroesophageal cancers, at least 20 participants expressing IHC 2+ or higher (defined as participants expressing EGFR IHC 2+ or above and/or cMet IHC 2+ or above) are enrolled. Additional enrollment in Phase 2a cohorts may be allowed to achieve this minimal enrollment.
This is an open-label, multicenter, multi-arm Phase 2 interventional study in participants with previously treated advanced or unresectable GC or EC who are 20 years or older (or the legal age of consent in the jurisdiction in which the study is taking place). Japanese participants with gastric/GEJ or EC who express varying degrees of EGFR, cMet, or both as determined by IHC locally or centrally are enrolled in the GC cohort or EC cohort.
The baseline disease assessments are performed as close as possible to the start of treatment, but no more than 28 days prior to the first dose. Subsequent assessments are performed at 6 weeks (+1 week) after initiation of study treatment administration, then every 6 weeks (±1 week) for the first 12 months and then every 12 weeks (±1 week) until objective radiographic disease progression. Timing for each disease assessment is relative to the first dose of study treatment administration, regardless of dose modifications, and continues until disease progression. Any other site at which new disease is suspected is also imaged.
For purposes of analysis, the following populations are defined: • (1) All Treated population: All participants who take at least 1 dose of study treatment; • (2) Response evaluable population: All participants who satisfy the following criteria: • Receive at least 1 dose of study treatment; • At least 2 post-baseline efficacy disease assessments, or discontinued treatment for any reason, or have disease progression/death prior to the second post-baseline disease assessment; • (3) Safety population: All participants who take at least 1 dose of study treatment; • (4) Pharmacokinetics population: All participants who receive at least 1 dose of study treatment and have at least 1 evaluable post-baseline measurement; • (5) Immunogenicity population: All participants who receive at least 1 dose of study treatment and have at least 1 evaluable post-baseline measurement.
The primary efficacy measure is ORR. Objective response rate is defined as the proportion of participants who achieve either CR or PR, determined by investigator assessment using RECIST Version 1.1. Confirmation of investigator-assessed ORR may be performed through IRC in the Phase 2b.
Disease Control Rate: Disease control rate is defined as the percentage of participants achieving complete or partial response or stable disease for at least 6 weeks as defined by RECIST Version1.1. The DCR and its 95% CI with Clopper-Pearson method are also calculated.
Next, response to treatment was evaluated. The “All Treated” patient population were patients who received at least 1 dose of study treatment.

[1] = all treated population, IHC 1+, N=5, 1,050/1,400 mg IV
[2] = all treated population, IHC 1+, N=5, 1,050/1,400 mg IV, number of participants
[3] = all treated population, IHC 2+, N=11, 1,050/1,400 mg IV
[4] = all treated population, IHC 2+, N=11, 1,050/1,400 mg IV, number of participants
[5] = all treated population, IHC 3+, N=9, 1,050/1,400 mg IV
[6] = all treated population, IHC 3+, N=9, 1,050/1,400 mg IV, number of participants
[7] = all treated population, IHC NA, N=4, 1,050/1,400 mg IV
[8] = all treated population, IHC NA, N=4, 1,050/1,400 mg IV, number of participants
[9] = all treated population, Total, N=29, 1,050/1,400 mg IV
[10] = all treated population, Total, N=29, 1,050/1,400 mg IV, number of participants
[11] = response evaluable population, IHC 1+, N=4, 1,050/1,400 mg IV
[12] = response evaluable population, IHC 1+, N=4, 1,050/1,400 mg IV, number of participants
[13] = response evaluable population, IHC 2+, N=11, 1,050/1,400 mg IV
[14] = response evaluable population, IHC 2+, N=11, 1,050/1,400 mg IV, number of participants
[15] = response evaluable population, IHC 3+, N=9, 1,050/1,400 mg IV
[16] = response evaluable population, IHC 3+, N=9, 1,050/1,400 mg IV, number of participants
[17] = response evaluable population, Total, N=24, 1,050/1,400 mg IV
[18] = response evaluable population, Total, N=24, 1,050/1,400 mg IV, number of participants

amivantamab
Disease control rate (CR + PR + SD) [1]: (20.0%) | Not Evaluable (NE) [1]: (40.0%) | Progressive Disease (PD) [1]: (40.0%) | Complete response (CR) [2]: 0 | Disease control rate (CR + PR + SD) [2]: 1 | Not Evaluable (NE) [2]: 2 | Objective response rate (CR + PR) [2]: 0 | Partial response (PR) [2]: 0 | Progressive Disease (PD) [2]: 2 | Disease control rate (CR + PR + SD) [3]: (9.1%) | Not Evaluable (NE) [3]: (9.1%) | Progressive Disease (PD) [3]: (81.8%) | Complete response (CR) [4]: 0 | Disease control rate (CR + PR + SD) [4]: 1 | Not Evaluable (NE) [4]: 1 | Objective response rate (CR + PR) [4]: 0 | Partial response (PR) [4]: 0 | Progressive Disease (PD) [4]: 9 | Disease control rate (CR + PR + SD) [5]: (44.4%) | Objective response rate (CR + PR) [5]: (11.1%) | Partial response (PR) [5]: (11.1%) | Progressive Disease (PD) [5]: (55.6%) | Complete response (CR) [6]: 0 | Disease control rate (CR + PR + SD) [6]: 4 | Not Evaluable (NE) [6]: 0 | Objective response rate (CR + PR) [6]: 1 | Partial response (PR) [6]: 1 | Progressive Disease (PD) [6]: 5 | Disease control rate (CR + PR + SD) [7]: (25.0%) | Progressive Disease (PD) [7]: (75.0%) | Complete response (CR) [8]: 0 | Disease control rate (CR + PR + SD) [8]: 1 | Not Evaluable (NE) [8]: 0 | Objective response rate (CR + PR) [8]: 0 | Partial response (PR) [8]: 0 | Progressive Disease (PD) [8]: 3 | Disease control rate (CR + PR + SD) [9]: (24.1%) | Not Evaluable (NE) [9]: (10.3%) | Objective response rate (CR + PR) [9]: (3.4%) | Partial response (PR) [9]: (3.4%) | Progressive Disease (PD) [9]: (65.5%) | Complete response (CR) [10]: 0 | Disease control rate (CR + PR + SD) [10]: 7 | Not Evaluable (NE) [10]: 3 | Objective response rate (CR + PR) [10]: 1 | Partial response (PR) [10]: 1 | Progressive Disease (PD) [10]: 19 | Disease control rate (CR + PR + SD) [11]: (25.0%) | Not Evaluable (NE) [11]: (25.0%) | Progressive Disease (PD) [11]: (50.0%) | Complete response (CR) [12]: 0 | Disease control rate (CR + PR + SD) [12]: 1 | Not Evaluable (NE) [12]: 1 | Objective response rate (CR + PR) [12]: 0 | Partial response (PR) [12]: 0 | Progressive Disease (PD) [12]: 2 | Disease control rate (CR + PR + SD) [13]: (9.1%) | Not Evaluable (NE) [13]: (9.1%) | Progressive Disease (PD) [13]: (81.8%) | Complete response (CR) [14]: 0 | Disease control rate (CR + PR + SD) [14]: 1 | Not Evaluable (NE) [14]: 1 | Objective response rate (CR + PR) [14]: 0 | Partial response (PR) [14]: 0 | Progressive Disease (PD) [14]: 9 | Disease control rate (CR + PR + SD) [15]: (44.4%) | Objective response rate (CR + PR) [15]: (11.1%) | Partial response (PR) [15]: (11.1%) | Progressive Disease (PD) [15]: (55.6%) | Complete response (CR) [16]: 0 | Disease control rate (CR + PR + SD) [16]: 4 | Not Evaluable (NE) [16]: 0 | Objective response rate (CR + PR) [16]: 1 | Partial response (PR) [16]: 1 | Progressive Disease (PD) [16]: 5 | Not Evaluable (NE) [17]: (8.3%) | Objective response rate (CR + PR) [17]: (4.2%) | Partial response (PR) [17]: (4.2%) | Progressive Disease (PD) [17]: (66.7%) | Complete response (CR) [18]: 0 | Disease control rate (CR + PR + SD) [18]: 6 | Not Evaluable (NE) [18]: 2 | Objective response rate (CR + PR) [18]: 1 | Partial response (PR) [18]: 1 | Progressive Disease (PD) [18]: 16
